According to US7528175B2, “Method of treating airway diseases with beta-adrenergic inverse agonists” (Inverseon, Inc., priority 2005, dated 2009):
Several values for one entry are separate records, joined by “and”; a condition that tells them apart may be missing. Equal values may be shown once. Entries after “also recorded” stand apart in the source; their conditions may differ. Read-outs that look alike come from different tables or passages of the source.

Key:
[1] = system: asthmatic mice; assay: BALF cell number and type (Example 11); type: in vivo; settings: vs nontreated asthmatic mice
Text: The same mice as described in Example 1 underwent bronchoalveolar lavage (BAL) to determine the total number and type of immune system cells in the lung. BAL Fluid (BALF) was irrigated and collected from the lungs of mice as previously described (Evans K L, Bond R A, Corry […]. Frequency dependence of respiratory system mechanics during induced constriction in a murine model of asthma. J Appl Physiol. 2003 January;94(1):245-52). […] The number of neutrophils was increased in nontreated asthmatic mice compared to mice that served as controls for chronic beta-blocker treatments. In comparison to their notable effects on airway responsiveness, the β-AR ligands tested had very little effect on BALF cellularity. […] FIG. 12 has 3 panels of cell number and type of cells from the bronchoalveolar lavage fluid of asthmatic mice treated acutely or chronically with beta adrenergic ligands. Cells were identified as eosinophils (black bars), macrophages (hatched bars), neutrophils (grey bars), and lymphocytes (white bars) by standard morphologic criteria. At least 200 cells were counted per cytospin preparation, and the absolute number of each cell type was calculated based on the volume of fluid recovered from the lavage. […] Data are expressed as mean ±SEM and are representative of 6-25 animals per group. #P<0.05 compared to NTX, *P<0.05 compared to control (ANOVA).

[2] = system: asthmatic mice; assay: Total number of immune cells in BALF (Example 12); type: in vivo; settings: did not reach statistical significance
Description: (§1) Bronchial alveolar lavage fluid was collected from treated animals and total immune cell number was determined and the total number of eosinophils was also determined. Additionally, the interleukin 10 (IL-10) levels were determined in the mice.

[3] = system: interleukin 10 (IL-10); assay: IL-10 levels in BALF; type: in vivo, mice
Description: as §1

[4] = system: adults with mild asthma; assay: Phase IIa clinical trial of chronic oral nadolol, tolerability and cardiovascular function; settings: for Heart rate at 4 hrs after administration of dose: subject 003, 80 mg
Description: (§2) Study Design: The study is an open-label Phase IIa, proof of principle, 11-week, dose escalation study in mild asthma. Up to twelve subjects with mild asthma, not taking inhaled corticosteroids or other controller medications are to be recruited from a single clinical research center. […] Combivent rescue medication was provided to subjects during the run-in period to replace their own rescue medication which typically is Albuterol (salbutamol a beta 2 partial agonist).
(§3) The subjects are maintained at their maximum tolerated dose for a minimum of 4 weeks.
(§4) All the following criteria had to be met for dose escalation otherwise the dose was kept at maintenance level (same dose), reduced to previous lower tolerated dose or the subject was terminated from the study.
(§5) Data collected at baseline and during study visits include lung function (spirometry—FEV1 and daily peak flow rates —PEFR), asthma symptoms via dairy cards), heart rate and blood pressure. In addition, airway hyper-responsiveness (methacholine challenge test—PC20) and Asthma Control Questionaire (Juniper ACQ) will be performed. Blood is collected to monitor beta adrenergic receptor levels in lymphocytes and baseline laboratory evaluation.

[5] = system: asthmatic mice; assay: Airway resistance (Raw) response to methacholine in murine model of asthma (forced oscillation); type: in vivo, Balb/cJ mice
Description: Balb/cJ mice aged 6 weeks (Jackson Animal Laboratory, Bar Harbor, Me.) were housed under specific pathogen-free conditions and fed a chicken ovalbumin-free diet. The Animal Research Ethics Boards of both the University of Houston and the Baylor College of Medicine approved all experiments reported here. […] Mice were sensitized with subcutaneous injection of 25 μg of ovalbumin adsorbed to aluminum hydroxide on protocol days 2, 9, and 16. Subsequently, mice were given 50 μL of saline solution containing 25 μg of ovalbumin intranasally, on a daily basis, from protocol days 23 through 27. A group of ovalbumin-sensitized saline-challenged mice serves as controls for systemic sensitization and respiratory challenges with ovalbumin. Prior to intranasal administrations, mice were sedated with halothane vapor.
To examine the effects of duration of β-adrenergic ligand therapy on the phenotype of the murine model of asthma, the experimental drugs were administered either acutely or chronically to different groups of asthmatic mice.
Asthmatic mice on acute therapy were given a single intravenous bolus infusion of either β-adrenergic drug or normal saline on protocol day 28, 15 minutes before airway responsiveness to methacholine was determined. […] […] […] These concentrations were chosen based on those producing therapeutic effects in mice in previously published studies. The non-asthmatic mice were fed normal chow.
On protocol day 28, mice were anesthetized, tracheotomized, and connected to a computer-controlled small animal ventilator (Flexivent, Scientific Respiratory Equipment, Inc., Montreal, Canada). Airway resistance (Raw) was measured using the forced oscillation technique. The cellular composition of bronchoalveolar lavage fluid (BALF) was also determined.
To induce airway constriction, a solution containing 150 μg/mL of acetyl-α-methylcholine chloride (methacholine) (Sigma Chemical, St. Louis, Mo.) was infused intravenously at constant rates using a syringe infusion pump (Raze Scientific Instruments, Stanford, Conn.). […] Each methacholine dose was administered for 3 to 5 minutes, during which data were sampled at 1-minute intervals and then averaged.
The complex input impedance of the respiratory system was computed and the value of the real part of respiratory system impedance at 19.75 Hz was taken to reflect the magnitude of airway resistance (Raw). To examine the degree of airway responsiveness of each animal, the values for Raw as a function of methacholine doses were plotted. The largest value for Raw achieved in response to methacholine stimulation was referred to as Rawpeak. For mice that achieved a plateau in the methacholine dose-Raw response curve, the ED50 was calculated by linear interpolation using the GraphPad Prism4 (GraphPad Software, Inc.). […] The Bonferroni test was used to examine the statistical differences between experimental groups. The effects of acute drug treatments on baseline respiratory system mechanics were assessed using a two-tailed paired t-test. A value of P<0.05 was considered significant.
For these experiments, salbutamol was used for chronic administration at 0.5 mg/kg/day with a minipump and for acute administration at 0.15 mg/kg by i.v. bolus 15 minutes prior to challenge. Alprenolol was used at a high dose of 7200 ppm in chow or at a low dose of 720 ppm in chow. Carvedilol was used at a high dose of 2400 ppm in chow or at a low dose of 720 ppm in chow.

[6] = system: β2-adrenergic receptor; assay: Immunohistochemistry of β2-adrenergic receptor levels in lungs; type: in vivo, mice; settings: chronic treatment vs untreated animals
Description: The mice were sacrificed and the lungs excised. […] Lungs were embedded in OCT and 12-μm sections cut with a Tissue-Tek II cryostat. […] After 3 washes in PBS, the slides were blocked with 5% milk in PBS for 1 h, and then incubated overnight with anti-β2-adrenergic receptor antibody (1:200, Santa Cruz Biotechnology) in blocking solution. Slides were washed in PBS and incubated with secondary antibody (1:200, Cy3 goat anti-rabbit, 16 h at 4° C.). […] After washing with PBS, coverslips were mounted and viewed by epifluorescent microscopy.

[7] = system: asthmatic mice; settings: Callaerts-Vegh et al. 2004, cited from earlier work
[8] = system: ovalbumin-sensitized, allergen-challenged mice; assay: Acute nadolol and aminophylline, methacholine-induced bronchoconstriction; type: in vivo; settings: nadolol 0.72 mg/kg i.p. 15 minutes prior to methacholine
Description: At time point 1 (time=−10 min) baseline airway resistance of the mice was determined.

[9] = system: adults with mild asthma; settings: human, in vivo
Description: as §2, §3, §4, §5

SMILES: CC(C)(C)NCC(O)COc1cccc2c1CC(O)C(O)C2 (stereo not shown) [nadolol]
- BALF cellularity ([1]; acute treatment (15 minutes)): significant elevations in the number of neutrophils
- BALF cellularity ([1]; chronic treatment (28 days)): significant elevations in the number of neutrophils
- lower number of cells in BALF compared to non-drug-treated (S/C) mice ([2]; acute treatment): approximately 25%
- lower number of cells in BALF compared to non-drug-treated (S/C) mice ([2]; chronic treatment): approximately 25%
- IL-10 levels in BALF ([3]; acute treatment, P<0.01 vs S/C): a reduction was observed
- IL-10 levels in BALF ([3]; chronic treatment, P<0.05 vs NS/NC, P<0.001 vs S/C): statistically significant increases
- Reason for Maximum Tolerated Dose: Blood Pressure ([4]; per subject): 110/68 mm Hg and 91/63 mm Hg
- Reason for Maximum Tolerated Dose: FEV1 ([4]; per subject): FEV1 78% predicted; also recorded: FEV1 at 68% predicted
- Reason for Maximum Tolerated Dose: Heart Rate ([4]; per subject): Heart Rate 48 bpm
- Nadolol Max Tolerated Dose ([4]; per subject (001-005), once daily oral): 40 mg (2×) and 20 mg (2×) and 10 mg
- Heart Rate Visit 9 ([4]; per subject, on maximum tolerated dose): 71 bpm and 70 bpm (2×) and 72 bpm and 53 bpm
- Heart rate at 4 hrs after administration of dose ([4]; visit 5): 42 bpm
- Heart rate at 4 hrs after administration of dose ([4]; visit 6): 48 bpm
- airway resistance (Raw) ([5]; 1 ppm in chow): identical to the untreated mice
- Decreased Raw ([5]; 15 minutes of administration): no
- Decreased Raw ([5]; 2 days of administration): yes
- Decreased Raw ([5]; 28 days of administration): yes
- airway function ([5]; acute, parenteral administration, asthmatic mice): significant reduction in airway function
- airway responsiveness to methacholine provocation (Raw) ([5]; asthmatic mice, acute: single intravenous bolus 15 minutes before methacholine): enhanced the airway responsiveness
- airway responsiveness to methacholine provocation (Raw) ([5]; asthmatic mice, chronic administration for 28 days): produced a decrease in airway responsiveness, which was more pronounced than that caused by carvedilol treatment
- protection from airway hyperresponsiveness ([5]; chronic administration, low and high doses in chow (FIGS. 8D-8G)): providing protection from airway hyperresponsiveness
- observed airway adverse effects ([5]; orally in the animal chow at 250 ppm): noticeably wheezing and airway distress
- labeling with anti-β2-adrenergic receptor antibodies in lungs [6]: considerably more intense
- airway hyperresponsiveness ([7]; administered acutely): worsens airway hyperresponsiveness
- airway hyperresponsiveness ([7]; administered chronically): prevents airway hyperresponsiveness
- baseline airway resistance [8]: same baseline airway resistance as non-drug treated sensitized and allergen-challenged mice
- serious adverse events due to study drug administration [9]: No serious adverse events
- tolerability of the first dose [9]: All subjects tolerated the first 10 mg dose
